# Patent US20250288645A1, “USE OF GsMTx4 AND GsMTx4 CONJUGATES TO IMPROVE RECOVERY FROM JOINT INJURY” (priority 2023, published 2025)
# “Also recorded” adds a separate entry of the source. No end group written: not given here.
# Legend:
# CGRP^+ pain nerves = experiment: Bilateral ACL-injury mouse model: knee nerve innervation and CGRP+ pain nerves; format: in vivo
# Source text: Some of the studies reported below involved a murine model of animals which were subjected to trauma by injuring an ACL (as an exemplar of injury to any of the four knee ligaments). Without wishing to be bound by theory, it is believed that injury to the ACL changes the mechanical loading on the joint, promoting imbalanced metabolism in articular cartilage, and promoting the development of post-traumatic OA, or “PTOA.” Animals were divided into four cohorts: the first group, the controls, were not subjected to trauma, the second group underwent bilateral ACL injury, but no further treatment, the third group underwent bilateral ACL injury, and was then administered saline solution at days 3, 10 and 17 post-injury, and the fourth group underwent bilateral ACL injury, and was then administered GsMTx4 peptide at days 3, 10 and 17 post-injury. The animals were evaluated by gait analysis, a cell vulnerability assay, and a histological evaluation/immunofluorescence assay. In one aspect, the assays compared the expression of Piezo1 and Piezo2 in chondrocytes from injured joints, from uninjured controls, and from injured joints injured and then treated with GsMTx4 and from joints that were injured and then treated only with saline solution. The study also looked at calcitonin gene-related peptide (“CGRP”)-containing (“CGRP^+”) nerve endings. CGRP^+ nerves have been identified as principal coordinators of thermal and mechanical sensitivity in various pain models. See, e.g., Powell, et al., Nat Commun 12, 5812 (2021); doi.org/10.1038/s41467-021-26100-6.
# Piezo2 = experiment: Bilateral ACL-injury mouse model: Piezo2 expression in CGRP+ pain nerves; format: in vivo; settings: ACL-I mice, GsMTx4 post-injury, versus saline-treated ACL-I mice
# Source text: Some of the studies reported below involved a murine model of animals which were subjected to trauma by injuring an ACL (as an exemplar of injury to any of the four knee ligaments). Without wishing to be bound by theory, it is believed that injury to the ACL changes the mechanical loading on the joint, promoting imbalanced metabolism in articular cartilage, and promoting the development of post-traumatic OA, or “PTOA.” Animals were divided into four cohorts: the first group, the controls, were not subjected to trauma, the second group underwent bilateral ACL injury, but no further treatment, the third group underwent bilateral ACL injury, and was then administered saline solution at days 3, 10 and 17 post-injury, and the fourth group underwent bilateral ACL injury, and was then administered GsMTx4 peptide at days 3, 10 and 17 post-injury. The animals were evaluated by gait analysis, a cell vulnerability assay, and a histological evaluation/immunofluorescence assay. In one aspect, the assays compared the expression of Piezo1 and Piezo2 in chondrocytes from injured joints, from uninjured controls, and from injured joints injured and then treated with GsMTx4 and from joints that were injured and then treated only with saline solution. The study also looked at calcitonin gene-related peptide (“CGRP”)-containing (“CGRP^+”) nerve endings. […]
# chondrocytes = experiment: Massive rotator cuff tear mouse model: chondrocyte mechano-vulnerability; format: in vivo; settings: rotator cuff injury, subcutaneous injection; versus contralateral control joint and saline-injected animals
# Method: Ethical approval was obtained from the appropriate institutional committee Humeri were harvested from wild-type 12-22 week old C57Bl/6 male and female mice. Each specimen was placed in calcium imaging buffer with 2 mM calcium chloride and subsequently incubated with 10 μM calcein-AM for 30 minutes at 37° C. To indicate intracellular esterase activity of living cells, each specimen was incubated with 10 μM yoda1, a Piezo1-specific agonist, 5 nM GSK101, a TRPV4-agonist, or control (DMSO 0.25%, n=7-10/group) in calcium imaging buffer for 15 minutes. Specimens were then incubated with 1.5 nM ethidium homodimer-1 for 3 minutes to indicate loss of plasma membrane integrity in dead cells. The specimen was then arranged in a custom 3-D printed holding device such that the chondrocytes within the apex of sphericity of the humeral head were facing the glass well of a dish to be imaged on an inverted confocal microscope. […] A custom MATLAB image processing algorithm was developed to quantify cell viability. […] Then, watershed segmentation, distance transform, and centroid approximation algorithms were created and applied to segment and quantify individual cells based on intensity values. This facilitated the cell counting process, allowed quantification of the total cell area, and allowed adjustment of the region of interest between before- and after-impact micrographs. […]
# mice = experiment: Gait analysis after bilateral ACL injury; format: in vivo, mouse; settings: weekly subcutaneous injections, after 3 weeks
# Method: This Example discusses studies in which mice were first divided into three groups: Group 1, control animals, were not injured, but were injected with GsMTx4, Group 2 mice were given a bilateral ACL injury in their hind legs, and then given weekly subcutaneous injections of saline, and (3) Group 3 mice were given a bilateral ACL injury in their hind legs, and then given weekly subcutaneous injections of GsMTx4.
# After 3 weeks, the gait of the animals in each group was studied for the following metrics: hind paw stride length, hind paw average speed, hind paw swing speed, and step cycle.
# [1] = ACL-I mice, GsMTx4 post-injury, versus saline-treated ACL-I mice
substance,measurement,setting,value
GsMTx4 (GCLEFWWKCNPNDDKCCRPKLKCSKLFKLCNFSF-NH2; ends and bridges not checked; listed as Grammostola spatulata),CGRP^+ pain nerves / CGRP level in injured knee,CGRP^+ pain nerves; [1],decreased CGRP^+ pain nerves; also recorded: lower levels of CGRP present
same,nerve innervation in the knee,CGRP^+ pain nerves; [1],decreased nerve innervation in the knee
same,pain nerves in the meniscus of the injured joints,"CGRP^+ pain nerves; bilateral ACL injury, versus no treatment or saline",reduced the increase of pain nerves in the meniscus
same,Piezo2 expression in CGRP^+ pain nerves,Piezo2,decreased Piezo2 expression in CGRP^+ pain nerves
same,chondrocyte vulnerability,chondrocytes,reduction in chondrocyte vulnerability
same,"gait (hind paw stride length, hind paw average speed, hind paw swing speed, step cycle; FIG. 3)",mice,the same or almost the same as that of mice that had not had an ACL injured
